Legend:
HUVEC [1] = experiment: 5-FU cytotoxicity on HUVEC according to D-glucose or L-glucose concentration (MTS); type: cell-based, human
Protocol: An MTS cell proliferation assay was conducted to evaluate the cytotoxic effect of 5-FU on HUVEC according to D-glucose concentration under different pH conditions.
The cells were then incubated for an additional 24 hours in DMEM medium containing various concentrations of glucose.
To assess the cytotoxic effect of L-glucose on HUVEC, the experiment was conducted in the same manner as described in Example 2, Section 3.
To assess the cytotoxic effect of D-glucose or L-glucose on HUVEC, the experiment was conducted in the same manner as described in Example 2, Section 3.

HUVEC [2] = experiment: Intracellular ROS generation in HUVEC (DCF-DA staining); type: cell-based, human
Protocol: The effect of D-glucose on intracellular reactive oxygen species (ROS) generation in HUVEC was measured using the DCF-DA staining method. HUVEC cells (25,000 per well) were cultured in a 96-well microplate with a dark, clear bottom. After 24 hours of incubation, the cells were treated with D-glucose at concentrations of 10 mM, 25 mM, 50 mM, 100 mM, 125 mM, 150 mM, 200 mM, and 250 mM. Following drug treatment, the culture medium was removed, and the cells were washed with 100 μL/well of Hanks' Balanced Salt Solution (HBSS) buffer. After washing, 100 μL/well of diluted DCFDA was added, and the […]. The cells were then incubated in diluted DCFDA solution for 45 minutes at 37 °C in the dark. Following incubation, the DCFDA solution was removed, and 100 μL of HBSS buffer was added. Fluorescence was immediately measured using a fluorescence plate reader at Ex/Em=485/535 nm.
The effect of L-glucose on intracellular ROS generation was measured using the same method as for D-glucose.

HUVEC [3] = experiment: HUVEC cytotoxicity according to L-NMMA concentration (MTS); type: cell-based, human; details: L-NMMA alone, FIG. 19
Protocol: The cells were then incubated for an additional 24 hours in DMEM medium containing various L-NMMA concentrations. Following incubation, the cells were washed twice with PBS, and 100 μL of fresh DMEM growth medium was added. The cells were then further incubated for 48 hours.

platelets = details: L-NMMA alone, physiological conditions; cited from earlier work
blood pressure = details: administered into blood vessels; cited from earlier work
hexokinase = details: role: substrate; first enzyme in glycolysis; cited from earlier work
human body = details: in vivo; cited from earlier work
[4] = system: human gastric cancer cells; experiment: Human gastric cancer cell xenograft in nude mice, bevacizumab local injection; type: in vivo, nude mice (Crj: BALB/c-nu/nu), human tumor cells; details: 1 mg bevacizumab, three times at one-week intervals
Protocol: The animals used in the experiment were three male nude mice (Crj: BALB/c-nu/nu, male), each weighing approximately 30 g and five weeks old, produced by Orient. The mice underwent a one-week acclimatization period in the laboratory before use. Human gastric cancer cells (5×10^6 cells/100 μL in PBS) were xenografted into the subcutaneous fat layer on the dorsal side of each nude mouse. The tumor size was measured periodically, and drug administration was initiated when the tumor reached a diameter of 1 cm.
The experimental animals were administered 1 mg of bevacizumab by injecting 0.2 cc adjacent to the tumor three times at one-week intervals.

advanced gastric cancer = details: combined with fluoropyrimidine-cisplatin therapy; cited from earlier work
[5] = D-glucose, L-glucose and mixtures with 5-FU, FIG. 15

O=C[C@H](O)[C@@H](O)[C@H](O)[C@H](O)CO [D-glucose]
cell viability (HUVEC [1]; D-glucose at both 5 mM and 25 mM, FIG. 13): significantly reduced cell viability | cell viability (HUVEC [1]; [5]): significantly reduced cell viability | ROS generation with increasing concentration (HUVEC [2]; D-glucose 10 mM to 250 mM, FIG. 11A): increased

CN=C(N)NCCC[C@H](N)C(=O)O [L-NMMA, N^G-Methyl-L-arginine]
cell viability (HUVEC [3]): significantly reduced cell viability | platelet activation in vivo (platelets): does not activate platelets in vivo | blood pressure (blood pressure): effectively increases blood pressure

O=C[C@@H](O)[C@H](O)[C@@H](O)[C@@H](O)CO [L-glucose]
cell viability (HUVEC [1]; [5]): significantly reduced cell viability | cell viability, comparison among D-glucose, L-glucose and mixtures (HUVEC [1]; FIG. 15): more pronounced reduction in cell viability | cell viability (HUVEC [1]; L-glucose at both 5 mM and 25 mM, FIG. 14): significantly reduced cell viability | phosphorylation by hexokinase (hexokinase): not phosphorylated by hexokinase | toxicity to the human body (human body): non-toxic to the human body | ROS generation with increasing concentration (HUVEC [2]; L-glucose, FIG. 11B): decreased

bevacizumab: recombinant humanized monoclonal antibody designed to inhibit vascular endothelial growth factor (VEGF)
tumor size for the following two months [4]: did not change | tumor size in the third month [4]: began to increase | tumor size four weeks after drug administration compared to before injection ([4]; P>0.05, FIG. 20): remained nearly unchanged | progression-free survival and overall response rate (advanced gastric cancer): improves progression-free survival and overall response rate

Source: US20260345649A1, “PHARMACEUTICAL COMPOSITION FOR DESTRUCTION OF TUMOR BLOOD VESSELS” (SAMSUNG MEDICAL FOUNDATION, priority 2022, published 2026)
